Assay results published in ChEMBL document CHEMBL4680298, “2-Aryl-3-(6-trifluoromethoxy)benzo[d]thiazole-based thiazolidinone hybrids as potential anti-infective agents: Synthesis, biological evaluation and molecular docking studies” (2021).
Converted amounts (≈) assume the structure as drawn.

Experiments:
Listeria monocytogenes = experiment: Anti-infective activity against Listeria monocytogenes NCTC 7973 assessed as reduction in bacterial growth by microdilution method; type: functional
Escherichia coli [1] = experiment: Anti-infective activity against resistant Escherichia coli assessed as reduction in bacterial growth by microdilution method; type: functional
Staphylococcus aureus [2] = experiment: Anti-infective activity against methicillin resistance Staphylococcus aureus assessed as reduction in bacterial growth by microdilution method; type: functional
Staphylococcus aureus [3] = experiment: Anti-infective activity against Staphylococcus aureus ATCC 6538 assessed as reduction in bacterial growth by microdilution method; type: functional
Pseudomonas aeruginosa [4] = experiment: Anti-infective activity against Pseudomonas aeruginosa ATCC 27853 assessed as reduction in bacterial growth by microdilution method; type: functional
Pseudomonas aeruginosa [5] = experiment: Anti-infective activity against Pseudomonas aeruginosa PAO1 assessed as reduction in bacterial growth by microdilution method; type: functional
Salmonella typhimurium = experiment: Anti-infective activity against Salmonella typhimurium ATCC 13311 assessed as reduction in bacterial growth by microdilution method; type: functional, Salmonella enterica subsp. enterica serovar Typhimurium; conditions: Salmonella enterica
Escherichia coli [6] = experiment: Anti-infective activity against Escherichia coli ATCC 35210 assessed as reduction in bacterial growth by microdilution method; type: functional

SMILES | MBC (Listeria monocytogenes) [µg/mL] | MIC (Listeria monocytogenes) [µg/mL] | MBC (Escherichia coli [1]) [µg/mL] | MIC (Escherichia coli [1]) [µg/mL] | MBC (Staphylococcus aureus [2]) [µg/mL] | MIC (Staphylococcus aureus [2]) [µg/mL] | MBC (Staphylococcus aureus [3]) [µg/mL] | MIC (Staphylococcus aureus [3]) [µg/mL] | MBC (Pseudomonas aeruginosa [4]) [µg/mL] | MIC (Pseudomonas aeruginosa [4]) [µg/mL] | MBC (Pseudomonas aeruginosa [5]) [µg/mL] | MIC (Pseudomonas aeruginosa [5]) [µg/mL] | MBC (Salmonella typhimurium) [µg/mL] | MIC (Salmonella typhimurium) [µg/mL] | MBC (Escherichia coli [6]) [µg/mL] | MIC (Escherichia coli [6]) [µg/mL]
O=C1CSC(c2ccc(F)cc2)N1c1nc2ccc(OC(F)(F)F)cc2s1 (racemic) | 500 (≈ 1210 µM) | 250 (≈ 603 µM) | 500 (≈ 1210 µM) | 250 (≈ 603 µM) | 500 (≈ 1210 µM) | 250 (≈ 603 µM) | 500 (≈ 1210 µM) | 250 (≈ 603 µM) | 500 (≈ 1210 µM) | 250 (≈ 603 µM) | 500 (≈ 1210 µM) | 250 (≈ 603 µM) | 250 (≈ 603 µM) | 150 (≈ 362 µM) | 250 (≈ 603 µM) | 150 (≈ 362 µM)
O=C1CSC(c2c(Cl)cccc2Cl)N1c1nc2ccc(OC(F)(F)F)cc2s1 (racemic) | 500 (≈ 1070 µM) | 250 (≈ 537 µM) | 500 (≈ 1070 µM) | 250 (≈ 537 µM) | 500 (≈ 1070 µM) | 250 (≈ 537 µM) | 500 (≈ 1070 µM) | 250 (≈ 537 µM) | 500 (≈ 1070 µM) | 250 (≈ 537 µM) | 250 (≈ 537 µM) | 120 (≈ 258 µM) | 250 (≈ 537 µM) | 120 (≈ 258 µM) | 250 (≈ 537 µM) | 120 (≈ 258 µM)
CN[C@@H]1[C@H](O[C@H]2[C@H](O[C@H]3[C@H](O)[C@@H](O)[C@H](N=C(N)N)[C@@H](O)[C@@H]3N=C(N)N)O[C@@H](C)[C@]2(O)C=O)O[C@@H](CO)[C@H](O)[C@H]1O [STREPTOMYCIN] | 300 (≈ 516 µM) | 150 (≈ 258 µM) | 200 (≈ 344 µM) | 100 (≈ 172 µM) | – | 100 (≈ 172 µM) | 300 (≈ 516 µM) | 150 (≈ 258 µM) | 200 (≈ 344 µM) | 100 (≈ 172 µM) | 100 (≈ 172 µM) | 50 (≈ 86 µM) | 200 (≈ 344 µM) | 100 (≈ 172 µM) | 200 (≈ 344 µM) | 100 (≈ 172 µM)
CC1(C)S[C@@H]2[C@H](NC(=O)[C@H](N)c3ccccc3)C(=O)N2[C@H]1C(=O)O [AMPICILLIN] | 300 (≈ 859 µM) | 150 (≈ 429 µM) | – | 200 (≈ 572 µM) | – | – | 300 (≈ 859 µM) | 150 (≈ 429 µM) | 150 (≈ 429 µM) | 100 (≈ 286 µM) | – | 200 (≈ 572 µM) | 200 (≈ 572 µM) | 150 (≈ 429 µM) | 200 (≈ 572 µM) | 150 (≈ 429 µM)
O=C1CSC(c2ccc(Cl)cc2)N1c1nc2ccc(OC(F)(F)F)cc2s1 (racemic) | 500 (≈ 1160 µM) | 250 (≈ 580 µM) | 250 (≈ 580 µM) | 120 (≈ 279 µM) | 750 (≈ 1740 µM) | 250 (≈ 580 µM) | 500 (≈ 1160 µM) | 250 (≈ 580 µM) | 500 (≈ 1160 µM) | 250 (≈ 580 µM) | 250 (≈ 580 µM) | 200 (≈ 464 µM) | 250 (≈ 580 µM) | 120 (≈ 279 µM) | 250 (≈ 580 µM) | 120 (≈ 279 µM)
O=C1CSC(c2ccc(Cl)cc2Cl)N1c1nc2ccc(OC(F)(F)F)cc2s1 (racemic) | 500 (≈ 1070 µM) | 150 (≈ 322 µM) | 500 (≈ 1070 µM) | 250 (≈ 537 µM) | 1000 (≈ 2150 µM) | 500 (≈ 1070 µM) | 500 (≈ 1070 µM) | 150 (≈ 322 µM) | 500 (≈ 1070 µM) | 250 (≈ 537 µM) | 1000 (≈ 2150 µM) | 250 (≈ 537 µM) | 250 (≈ 537 µM) | 120 (≈ 258 µM) | 250 (≈ 537 µM) | 120 (≈ 258 µM)
O=C1CSC(c2cccc(Cl)c2Cl)N1c1nc2ccc(OC(F)(F)F)cc2s1 (racemic) | 250 (≈ 537 µM) | 100 (≈ 215 µM) | 250 (≈ 537 µM) | 120 (≈ 258 µM) | 1000 (≈ 2150 µM) | 500 (≈ 1070 µM) | 250 (≈ 537 µM) | 100 (≈ 215 µM) | 500 (≈ 1070 µM) | 250 (≈ 537 µM) | 120 (≈ 258 µM) | 120 (≈ 258 µM) | 250 (≈ 537 µM) | 150 (≈ 322 µM) | 250 (≈ 537 µM) | 150 (≈ 322 µM)
O=C1CSC(c2c(F)cccc2F)N1c1nc2ccc(OC(F)(F)F)cc2s1 (racemic) | > 1000 | > 1000 | 500 (≈ 1160 µM) | 250 (≈ 578 µM) | 1000 (≈ 2310 µM) | 250 (≈ 578 µM) | > 1000 | > 1000 | 500 (≈ 1160 µM) | 250 (≈ 578 µM) | 500 (≈ 1160 µM) | 300 (≈ 694 µM) | 250 (≈ 578 µM) | 120 (≈ 278 µM) | 250 (≈ 578 µM) | 120 (≈ 278 µM)
O=C1CSC(c2ccc([N+](=O)[O-])cc2)N1c1nc2ccc(OC(F)(F)F)cc2s1 (racemic) | 500 (≈ 1130 µM) | 250 (≈ 566 µM) | 500 (≈ 1130 µM) | 250 (≈ 566 µM) | 1000 (≈ 2270 µM) | 500 (≈ 1130 µM) | 500 (≈ 1130 µM) | 250 (≈ 566 µM) | 500 (≈ 1130 µM) | 250 (≈ 566 µM) | 250 (≈ 566 µM) | 120 (≈ 272 µM) | 250 (≈ 566 µM) | 120 (≈ 272 µM) | 250 (≈ 566 µM) | 120 (≈ 272 µM)
O=C1CSC(c2ccc(O)cc2)N1c1nc2ccc(OC(F)(F)F)cc2s1 (racemic) | 750 (≈ 1820 µM) | 500 (≈ 1210 µM) | 500 (≈ 1210 µM) | 250 (≈ 606 µM) | 500 (≈ 1210 µM) | 250 (≈ 606 µM) | 750 (≈ 1820 µM) | 500 (≈ 1210 µM) | 250 (≈ 606 µM) | 120 (≈ 291 µM) | 500 (≈ 1210 µM) | 300 (≈ 727 µM) | 250 (≈ 606 µM) | 150 (≈ 364 µM) | 250 (≈ 606 µM) | 150 (≈ 364 µM)
COc1ccc(C2SCC(=O)N2c2nc3ccc(OC(F)(F)F)cc3s2)cc1 (racemic) | 500 (≈ 1170 µM) | 250 (≈ 586 µM) | 500 (≈ 1170 µM) | 250 (≈ 586 µM) | 1000 (≈ 2340 µM) | 500 (≈ 1170 µM) | 500 (≈ 1170 µM) | 250 (≈ 586 µM) | 500 (≈ 1170 µM) | 250 (≈ 586 µM) | 250 (≈ 586 µM) | 120 (≈ 281 µM) | 500 (≈ 1170 µM) | 250 (≈ 586 µM) | 500 (≈ 1170 µM) | 250 (≈ 586 µM)
O=C1CSC(c2c(F)cccc2Cl)N1c1nc2ccc(OC(F)(F)F)cc2s1 (racemic) | 500 (≈ 1110 µM) | 250 (≈ 557 µM) | 500 (≈ 1110 µM) | 250 (≈ 557 µM) | 1000 (≈ 2230 µM) | 500 (≈ 1110 µM) | 500 (≈ 1110 µM) | 250 (≈ 557 µM) | 1000 (≈ 2230 µM) | 500 (≈ 1110 µM) | 250 (≈ 557 µM) | 120 (≈ 267 µM) | 500 (≈ 1110 µM) | 250 (≈ 557 µM) | 500 (≈ 1110 µM) | 250 (≈ 557 µM)
